Experimental data from PMC9154759 (2022).

System: aptamer 1 (DNA, aptamer) GGGAGCTCAGAATAAACGCTCAATACTATCGCGGAGACAGCGCGGGAGGCACCGGGGAGATCCGGGCCTCATGTCGAA
Assay: berberine fluorescence enhancement (ex 365 nm, em 530 nm)
Conditions: 37 °C, 30 min; 50 μg/mL berberine, 0-280 nM aptamer, plateau at 200 nM; binding buffer not stated

With `COc1ccc2cc3[n+](cc2c1OC)CCc1cc2c(cc1-3)OCO2` the binding was “yes”.
